Data as given in patent publication US20130302888A1, “CELL CULTURE METHOD AND SYSTEM FOR ESTABLISHING AN IN VITRO MODEL OF THE INTESTINAL BARRIER” (GATTEFOSSE SAS, priority 2011, published 2013).

Key:
[1] = test system: Caco-2/HT29-MTX cocultures
HT29-MTX monolayers = settings: pH 7.4

Papp, effect of adding HT29-MTX to Caco-2 cells [1]: drastically increases the Papp
Papp (HT29-MTX monolayers): 2-3 10^−6 cm/s
Substance: Lucifer yellow [LY]
